Reference: paper PMC10223470 (Molecules, 2023)

Key:
human 5-HT2A receptor = biological target: T1, human 5-HT2A receptor (Homo sapiens, UniProt P28223); experiment: Competition radioligand binding at human 5-HT2A receptor ([3H]-Ketanserin); conditions: mean ± SEM of 2 independent experiments, read-out: hu5-HT2A % inh. at 10 µM
T1 construct: expressed in transfected cells; host or cells: CHO-K1
Method: Competition radioligand binding assays were performed on membranes isolated from cell lines stably expressing the cloned human receptors, which were either in-house or commercially available. […] Assays (250 μL assay final volume) were carried out in 96-well polypropylene plates in duplicate. In short, the suspension of appropriate membrane protein was incubated in an assay buffer with the addition of the corresponding radioligand, in the presence or absence of a tested compound or reference compound. […] After the incubation, the content of the test plates was transferred to 96 well plates with glass fiber filter GF/B or GF/C, previously pretreated with polyethyleneimine (PEI), and rapidly filtered with the use of vacuum, followed by rapid washing with cold (4 °C) wash buffer. After that, the filter plates were dried at 60 °C for 1 h. Then, 30 μL of liquid scintillation cocktail (UniverSol-ES, MP Biomedicals, Solon, OH, USA) was added to each well of the filter plates, and the radioactivity was measured in a MicroBeta^2 microplate scintillation counter (PerkinElmer, Madrid, Spain).
Competition binding curves were fitted to a one-site competition binding model (Fit Ki) with the use of Prism 7 software (GraphPad, San Diego, CA, USA). logKi (log of the equilibrium dissociation constant (Ki)) values were obtained after constraining the concentration of radioligand employed in the assay and its dissociation constant (KD) as determined in saturation radioligand binding assays.

mice [1] = experiment: Elevated plus-maze (EPM) test; format: in vivo; conditions: 25, 50 and 75 mg/kg i.p., 60 min before the test
Method: The experiments were carried out on 6 weeks old naive Swiss male mice (Experimental Medicine Center (OMD), Lublin, Poland), weighing 28–30 g. The cages with mice were located in air-conditioned rooms maintaining the ambient temperature within the range of 23–25 °C. The animals were provided with a natural 12 h day/night cycle, replicating the day and night mode. Each testing group was represented by 8–10 animals, depending on the research schedule. All experiments were conducted according to the National Institute of Health Guidelines for the Care and Use of Laboratory Animals (8th edition) and to the European Community Council Directive for the Care and Use of Laboratory Animals of 22 September 2010 (2010/63/EU) and were approved by the Local Ethical Committee (number of ethical approval: 147/2018).
Compound 17 (25, 50, 75 mg/kg) was suspended in 1% Tween 80 in saline solution and was administered intraperitoneally (i.p.) 60 min before the test. Diazepam (DZ, Relanium, Polfa, Poland) at a dose of 1 mg/kg was diluted in 0.9% saline containing 1% Tween 80 and was administered subcutaneously (s.c.), 60 min before the test. Imipramine hydrochloride (30 mg/kg, Sigma-Aldrich was administered intraperitoneally (i.p.) 60 min before the test. D-amphetamine sulfate (3 mg/kg; Sigma-Aldrich, USA) was given subcutaneously (s.c.). Prior to administration, the agent was dissolved in saline and injected 30 min before the test. Control animals received an (i.p.) or (s.c.) injection of a respective vehicle. All compounds were injected in a manner generally accepted in experimental pharmacology, in an amount of 10 mL/kg body weight.
The experiment was carried out on mice according to the method of Lister. […] The number of entries into the open arms and the time spent in these arms were scored for a 5-min test period. […] The following measures were obtained from the test: the total number of arm entries, the percentage of entries into the open arms, the time spent in the open arms expressed as a percentage of the time spent in both the open and closed arms. […]

mice [2] = experiment: Forced swim test (FST); format: in vivo; conditions: 60 min before the test
Method: The experiments were carried out on 6 weeks old naive Swiss male mice (Experimental Medicine Center (OMD), Lublin, Poland), weighing 28–30 g. The cages with mice were located in air-conditioned rooms maintaining the ambient temperature within the range of 23–25 °C. The animals were provided with a natural 12 h day/night cycle, replicating the day and night mode. Each testing group was represented by 8–10 animals, depending on the research schedule. All experiments were conducted according to the National Institute of Health Guidelines for the Care and Use of Laboratory Animals (8th edition) and to the European Community Council Directive for the Care and Use of Laboratory Animals of 22 September 2010 (2010/63/EU) and were approved by the Local Ethical Committee (number of ethical approval: 147/2018). Compound 17 (25, 50, 75 mg/kg) was suspended in 1% Tween 80 in saline solution and was administered intraperitoneally (i.p.) 60 min before the test. […] Imipramine hydrochloride (30 mg/kg, Sigma-Aldrich was administered intraperitoneally (i.p.) 60 min before the test. […] Sigma-Aldrich, USA) was given subcutaneously (s.c.). Prior to administration, the agent was dissolved in saline and injected 30 min before the test. Control animals received an (i.p.) or (s.c.) injection of a respective vehicle. All compounds were injected in a manner generally accepted in experimental pharmacology, in an amount of 10 mL/kg body weight. Forced Swim Test was carried out according to the method of Porsolt et al.. It is a standard behavioral test, called the resignation test, which is used to determine the effectiveness of antidepressant drugs in laboratory rodents. Each mouse was placed individually for 6 min into a glass cylinder (height 25 cm, diameter 10 cm) with 15 cm of water at 23–25 °C. After the first 2 min of the test, the total duration of immobility (in seconds) was measured. An animal was judged to be immobile when it ceased struggling and remained floating motionless and making only movements allowing it to keep the head just above the surface of the water.

T1 sequence (P28223 whole entry): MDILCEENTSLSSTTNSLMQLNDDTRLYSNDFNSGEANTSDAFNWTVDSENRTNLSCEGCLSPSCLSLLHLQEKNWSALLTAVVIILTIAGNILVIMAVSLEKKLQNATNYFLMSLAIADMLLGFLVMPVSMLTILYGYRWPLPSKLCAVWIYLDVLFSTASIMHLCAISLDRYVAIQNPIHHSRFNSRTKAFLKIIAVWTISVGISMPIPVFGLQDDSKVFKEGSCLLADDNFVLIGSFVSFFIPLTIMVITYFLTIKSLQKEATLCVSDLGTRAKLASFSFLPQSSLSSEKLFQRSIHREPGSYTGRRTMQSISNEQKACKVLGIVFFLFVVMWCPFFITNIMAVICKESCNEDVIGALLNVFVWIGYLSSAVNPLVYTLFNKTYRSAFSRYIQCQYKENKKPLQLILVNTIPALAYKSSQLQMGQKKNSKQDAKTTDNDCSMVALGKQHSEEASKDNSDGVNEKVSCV

## O=C(CCN1C(=O)CSc2ccccc21)Nc1ccc(Cl)cc1 [Compound 17, N-(4-Chlorophenyl)-3-(3-oxo-2,3-dihydro-4H-benzo[b][1,4]thiazin-4-yl)propanamide]
Human 5-HT2A receptor
  inhibition at 10 µM: 28 ± 1%
Mice [1]
  percentage of entries into open arms: did not change
  percentage of the time spent in open arms: did not change
Mice [2]; 25 mg/kg i.p., p > 0.05
  effect on immobility time: no statistically significant effect
Mice [2]; 50 mg/kg i.p., p < 0.001
  effect on total time of immobility vs control group: significantly reduced
Mice [2]; 75 mg/kg i.p., p < 0.01
  effect on total time of immobility vs control group: significantly reduced
